Measurements: patent publication US12552775B2, “Compounds and uses thereof” (Foghorn Therapeutics Inc., priority 2020, dated 2026)

Columns and labels:
HiBit-BRM fusion protein = target: T1, HiBit-BRM fusion protein (Homo sapiens, UniProt P51531); assay: HiBiT-BRM cell-based degradation assay (Nano-Glo HiBiT Lytic Detection, 24 h); conditions: stable HeLa cell line expressing HiBiT-BRM, top dose 30 μM
T1 construct: expressed in transfected cells
Procedure: (§1) Procedure: A stable HeLa cell line expressing HiBiT-BRM was generated. On day 0, 5000 cells were seeded in 40 μL of media into each well of 384-well cell culture plates. On day 1, cells were treated with 120 nL DMSO or 120 nL of 3-fold serially DMSO-diluted compounds (10 points in duplicate with 30 μM as final top dose). Subsequently plates were incubated for 24 h in a standard tissue culture incubator and equilibrated at room temperature for 15 minutes. Nano-Glo HiBiT Lytic Detection System (Promega N3050) reagent was freshly prepared and 20 ul was added to each well. Upon addition of this LgBit-containing reagent, the HiBiT and LgBiT proteins associate to form the luminescent NanoBiT luciferase. The plates were shaken for 10 minutes at room temperature and the bioluminescence read using an EnVision plate reader (PerkinElmer).
(§2) The degradation % was calculated using the following formula: % degradation=100%−100%×(Lumsample−LumLC)/(LumHC−LumLC). DMSO treated cells are employed as High Control (HC) and 2 μM of a known BRM/BRG1 degrader standard treated cells are employed as Low Control (LC).

[1] = target: T2, HiBit-BRG1 fusion protein (Homo sapiens, UniProt P51532); assay: HiBiT-BRG1 cell-based degradation assay (Nano-Glo HiBiT Lytic Detection, 24 h); conditions: stable HeLa cell line expressing HiBit-BRG1 and LgBit, top dose 30 μM, read-out: BRG1 HiBit Degradation Maximum (%)
T2 construct: expressed in transfected cells
Procedure: as §1
For measurement of BRG1 degradation, a stable HeLa cell line expressing HiBit-BRG1 and LgBit was generated. The same protocol as above was then followed.
as §2

T1 sequence (P51531 whole entry, the tested form may be a part): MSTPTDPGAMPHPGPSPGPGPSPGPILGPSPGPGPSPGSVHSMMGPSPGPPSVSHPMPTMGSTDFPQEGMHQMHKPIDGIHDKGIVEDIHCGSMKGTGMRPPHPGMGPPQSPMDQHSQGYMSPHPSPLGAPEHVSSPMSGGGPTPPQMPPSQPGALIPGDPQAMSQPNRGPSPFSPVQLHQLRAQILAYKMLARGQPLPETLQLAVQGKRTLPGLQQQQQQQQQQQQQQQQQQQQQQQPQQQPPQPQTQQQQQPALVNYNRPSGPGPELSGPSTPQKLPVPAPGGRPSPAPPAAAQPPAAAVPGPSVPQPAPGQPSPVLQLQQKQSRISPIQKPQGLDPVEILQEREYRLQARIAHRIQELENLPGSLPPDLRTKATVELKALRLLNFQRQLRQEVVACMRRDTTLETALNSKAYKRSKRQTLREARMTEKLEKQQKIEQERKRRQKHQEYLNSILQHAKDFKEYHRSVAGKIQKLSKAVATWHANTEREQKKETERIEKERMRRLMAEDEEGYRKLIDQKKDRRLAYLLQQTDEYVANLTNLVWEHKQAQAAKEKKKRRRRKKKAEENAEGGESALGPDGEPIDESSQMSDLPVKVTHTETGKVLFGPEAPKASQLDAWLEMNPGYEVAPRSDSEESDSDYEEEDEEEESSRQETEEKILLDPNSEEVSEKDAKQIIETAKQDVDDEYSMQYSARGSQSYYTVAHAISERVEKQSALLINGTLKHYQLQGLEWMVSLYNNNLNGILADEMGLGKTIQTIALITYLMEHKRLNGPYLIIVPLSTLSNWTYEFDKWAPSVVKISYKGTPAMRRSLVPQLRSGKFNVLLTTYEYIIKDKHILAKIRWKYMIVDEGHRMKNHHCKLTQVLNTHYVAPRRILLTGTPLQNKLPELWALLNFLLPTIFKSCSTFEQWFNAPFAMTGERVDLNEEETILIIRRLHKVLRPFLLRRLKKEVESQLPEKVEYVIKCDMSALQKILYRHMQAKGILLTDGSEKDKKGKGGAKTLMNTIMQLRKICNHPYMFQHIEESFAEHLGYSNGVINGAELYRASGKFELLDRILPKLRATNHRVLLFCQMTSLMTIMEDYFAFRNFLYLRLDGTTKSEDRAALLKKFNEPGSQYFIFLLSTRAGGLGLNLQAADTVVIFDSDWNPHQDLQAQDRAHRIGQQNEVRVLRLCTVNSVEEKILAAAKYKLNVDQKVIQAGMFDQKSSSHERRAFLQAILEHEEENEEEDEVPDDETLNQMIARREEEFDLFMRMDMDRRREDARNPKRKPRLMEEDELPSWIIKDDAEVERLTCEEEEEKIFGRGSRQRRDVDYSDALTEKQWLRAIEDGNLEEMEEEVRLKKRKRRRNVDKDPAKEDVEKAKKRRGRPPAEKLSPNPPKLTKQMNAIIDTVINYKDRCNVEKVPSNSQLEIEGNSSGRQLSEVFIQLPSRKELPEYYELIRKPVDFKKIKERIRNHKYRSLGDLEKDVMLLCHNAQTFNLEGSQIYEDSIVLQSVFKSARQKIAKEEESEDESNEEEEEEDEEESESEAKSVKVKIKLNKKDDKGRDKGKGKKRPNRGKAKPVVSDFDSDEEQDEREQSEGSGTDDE
T2 sequence (P51532 whole entry, the tested form may be a part): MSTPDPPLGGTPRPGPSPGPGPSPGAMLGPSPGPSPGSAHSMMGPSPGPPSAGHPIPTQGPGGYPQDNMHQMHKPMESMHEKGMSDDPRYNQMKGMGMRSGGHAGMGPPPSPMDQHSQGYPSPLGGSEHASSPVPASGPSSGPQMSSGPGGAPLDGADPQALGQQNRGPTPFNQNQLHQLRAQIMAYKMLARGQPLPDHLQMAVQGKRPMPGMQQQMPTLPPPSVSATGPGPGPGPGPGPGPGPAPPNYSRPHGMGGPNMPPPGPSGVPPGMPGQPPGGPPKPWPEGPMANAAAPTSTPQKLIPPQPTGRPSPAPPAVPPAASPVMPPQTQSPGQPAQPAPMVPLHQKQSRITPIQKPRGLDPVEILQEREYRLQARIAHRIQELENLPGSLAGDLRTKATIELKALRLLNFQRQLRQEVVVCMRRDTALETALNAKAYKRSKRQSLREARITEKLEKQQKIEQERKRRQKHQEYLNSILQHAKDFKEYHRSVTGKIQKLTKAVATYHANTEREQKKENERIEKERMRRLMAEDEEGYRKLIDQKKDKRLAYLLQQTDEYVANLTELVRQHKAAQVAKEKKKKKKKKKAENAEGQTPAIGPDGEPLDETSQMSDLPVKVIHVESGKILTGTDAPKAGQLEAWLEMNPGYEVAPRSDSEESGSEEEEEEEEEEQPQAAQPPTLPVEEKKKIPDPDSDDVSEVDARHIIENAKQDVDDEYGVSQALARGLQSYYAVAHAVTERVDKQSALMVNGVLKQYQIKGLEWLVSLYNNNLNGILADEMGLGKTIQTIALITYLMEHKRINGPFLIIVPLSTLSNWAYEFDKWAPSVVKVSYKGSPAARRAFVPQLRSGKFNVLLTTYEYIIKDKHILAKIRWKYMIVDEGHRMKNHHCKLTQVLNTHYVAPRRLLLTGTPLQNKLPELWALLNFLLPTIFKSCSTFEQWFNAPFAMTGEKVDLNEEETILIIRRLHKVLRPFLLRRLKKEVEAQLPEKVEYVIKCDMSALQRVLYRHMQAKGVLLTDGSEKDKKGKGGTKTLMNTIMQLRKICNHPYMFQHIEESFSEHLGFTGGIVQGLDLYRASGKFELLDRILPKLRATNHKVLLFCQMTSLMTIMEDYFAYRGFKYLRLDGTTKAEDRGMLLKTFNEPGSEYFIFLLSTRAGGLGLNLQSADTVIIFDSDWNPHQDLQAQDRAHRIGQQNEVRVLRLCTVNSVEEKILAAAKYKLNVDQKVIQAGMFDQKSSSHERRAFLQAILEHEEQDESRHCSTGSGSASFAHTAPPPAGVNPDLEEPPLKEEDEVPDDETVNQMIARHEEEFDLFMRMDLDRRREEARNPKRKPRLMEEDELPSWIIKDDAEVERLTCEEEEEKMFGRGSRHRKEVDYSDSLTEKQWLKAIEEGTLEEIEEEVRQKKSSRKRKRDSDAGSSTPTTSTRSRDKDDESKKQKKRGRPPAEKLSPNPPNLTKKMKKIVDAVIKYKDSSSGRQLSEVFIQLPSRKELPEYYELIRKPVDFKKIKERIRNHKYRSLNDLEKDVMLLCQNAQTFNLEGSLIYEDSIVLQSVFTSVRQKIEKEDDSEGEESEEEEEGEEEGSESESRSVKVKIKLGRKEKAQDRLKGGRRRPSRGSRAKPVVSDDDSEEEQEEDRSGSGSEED

SMILES | BRM HiBit Degradation Maximum (%) (HiBit-BRM fusion protein) | Dmax [1]
Nc1nnc(-c2ccccc2O)cc1OCC12CC(C(=O)N3CC(CCOc4cccc5c4C(=O)N(C4CCC(=O)NC4=O)C5=O)C3)(C1)C2 (centres unmarked) [Compound 78, 4-(2-(1-(3-(((3-amino-6-(2-hydroxyphenyl)pyridazin-4-yl)oxy)methyl)bicyclo[1.1.1]pentane-1-carbonyl)azetidin-3-yl)ethoxy)-2-(2,6-dioxopiperidin-3-yl)isoindoline-1,3-dione] | C (“C” indicates maximum degradation < 50%) | < 50%
Nc1nnc(-c2ccccc2O)cc1OCC12CC(C(=O)NCCOCCOCCNc3ccc4c(c3)C(=O)N(C3CCC(=O)NC3=O)C4=O)(C1)C2 (centres unmarked) [Compound 66, 3-(((3-amino-6-(2-hydroxyphenyl)pyridazin-4-yl)oxy)methyl)-N-(2-(2-(2-((2-(2,6-dioxopiperidin-3-yl)-1,3-dioxoisoindolin-5-yl)amino)ethoxy)ethoxy)ethyl)bicyclo[1.1.1]pentane-1-carboxamide] | C (“C” indicates maximum degradation < 50%) | < 50%
Cc1ncsc1-c1ccc(CNC(=O)[C@@H]2C[C@@H](O)CN2C(=O)[C@@H](NC(=O)COCCOCCOCCNC(=O)C23CC(COc4cc(-c5ccccc5O)nnc4N)(C2)C3)C(C)(C)C)cc1 [Compound 69, (2S,4R)-1-((S)-1-(3-(((3-amino-6-(2-hydroxyphenyl)pyridazin-4-yl)oxy)methyl)bicyclo[1.1.1]pentan-1-yl)-15-(tert-butyl)-1,13-dioxo-5,8,11-trioxa-2,14-diazahexadecan-16-oyl)-4-hydroxy-N-(4-(4-methylthiazol-5-yl)benzyl)pyrrolidine-2-carboxamide] | C (“C” indicates maximum degradation < 50%) | < 50%
Nc1nnc(-c2ccccc2O)cc1OCC12CC(CNC(=O)CCOCCOCCOc3ccc4c(c3)C(=O)N(C3CCC(=O)NC3=O)C4=O)(C1)C2 (centres unmarked) [Compound 1, N-[[3-([[3-amino-6-(2-hydroxyphenyl)pyridazin-4-yl]oxy]methyl)bicyclo[1.1.1]pentan-1-yl]methyl]-3-[2-(2-[[2-(2,6-dioxopiperidin-3-yl)-1,3-dioxoisoindol-5-yl]oxy]ethoxy)ethoxy]propanamide] | C (“C” indicates maximum degradation < 50%) | < 50%
Nc1nnc(-c2ccccc2O)cc1OCCC12CC(NC(=O)CCCCCCCCCCNc3ccc4c(c3)C(=O)N(C3CCC(=O)NC3=O)C4=O)(C1)C2 (centres unmarked) [Compound 26, N-[3-(2-[[3-amino-6-(2-hydroxyphenyl)pyridazin-4-yl]oxy]ethyl)bicyclo[1.1.1]pentan-1-yl]-11-[[2-(2,6-dioxopiperidin-3-yl)-1,3-dioxoisoindol-5-yl]amino]undecanamide] | C (“C” indicates maximum degradation < 50%) | < 50%
CN(CCNC(=O)C12CC(COc3cc(-c4ccccc4O)nnc3N)(C1)C2)CCOCCOc1cccc2c1C(=O)N(C1CCC(=O)NC1=O)C2=O (centres unmarked) [Compound 79, 3-(((3-amino-6-(2-hydroxyphenyl)pyridazin-4-yl)oxy)methyl)-N-(2-((2-(2-((2-(2,6-dioxopiperidin-3-yl)-1,3-dioxoisoindolin-4-yl)oxy)ethoxy)ethyl)(methyl)amino)ethyl)bicyclo[1.1.1]pentane-1-carboxamide] | C (“C” indicates maximum degradation < 50%) | < 50%
Cc1ncsc1-c1ccc(CNC(=O)[C@@H]2C[C@@H](O)CN2C(=O)[C@@H](NC(=O)CCCCCCCNC(=O)C23CC(COc4cc(-c5ccccc5O)nnc4N)(C2)C3)C(C)(C)C)cc1 [Compound 71, (2S,4R)-1-((S)-2-(8-(3-(((3-amino-6-(2-hydroxyphenyl)pyridazin-4-yl)oxy)methyl)bicyclo[1.1.1]pentane-1-carboxamido)octanamido)-3,3-dimethylbutanoyl)-4-hydroxy-N-(4-(4-methylthiazol-5-yl)benzyl)pyrrolidine-2-carboxamide] | B (“B” indicates maximum degradation ≥ 50%) | < 50%
Nc1nnc(-c2ccccc2O)cc1OCC12CC(C(=O)N3CC(CN4CCN(c5ccc6c(c5)C(=O)N(C5CCC(=O)NC5=O)C6=O)CC4)C3)(C1)C2 (centres unmarked) [Compound 100, 5-(4-((1-(3-(((3-amino-6-(2-hydroxyphenyl)pyridazin-4-yl)oxy)methyl)bicyclo[1.1.1]pentane-1-carbonyl)azetidin-3-yl)methyl)piperazin-1-yl)-2-(2,6-dioxopiperidin-3-yl)isoindoline-1,3-dione; formic acid] | C (“C” indicates maximum degradation < 50%) | < 50%
Nc1nnc(-c2ccccc2O)cc1OCC12CC(C(=O)NCCC3CCN(c4ccc5c(c4)C(=O)N(C4CCC(=O)NC4=O)C5=O)CC3)(C1)C2 (centres unmarked) [Compound 104, 3-(((3-amino-6-(2-hydroxyphenyl)pyridazin-4-yl)oxy)methyl)-N-(2-(1-(2-(2,6-dioxopiperidin-3-yl)-1,3-dioxoisoindolin-5-yl)piperidin-4-yl)ethyl)bicyclo[1.1.1]pentane-1-carboxamide] | C (“C” indicates maximum degradation < 50%) | < 50%
Cc1ncsc1-c1ccc(CNC(=O)[C@@H]2C[C@@H](O)CN2C(=O)[C@@H](NC(=O)CCCCCCCC(=O)NC23CC(CCOc4cc(-c5ccccc5O)nnc4N)(C2)C3)C(C)(C)C)cc1 [Compound 44, N1-(3-(2-((3-amino-6-(2-hydroxyphenyl)pyridazin-4-yl)oxy)ethyl)bicyclo[1.1.1]pentan-1-yl)-N9-((S)-1-((2S,4R)-4-hydroxy-2-((4-(4-methylthiazol-5-yl)benzyl)carbamoyl)pyrrolidin-1-yl)-3,3-dimethyl-1-oxobutan-2-yl)nonanediamide] | B (“B” indicates maximum degradation ≥ 50%) | < 50%
Nc1nnc(-c2ccccc2O)cc1OCC12CC(C(=O)N3CCC(CN4CCN(c5ccc6c(c5)C(=O)N(C5CCC(=O)NC5=O)C6=O)CC4)CC3)(C1)C2 (centres unmarked) [Compound 101, 5-(4-((1-(3-(((3-amino-6-(2-hydroxyphenyl)pyridazin-4-yl)oxy)methyl)bicyclo[1.1.1]pentane-1-carbonyl)piperidin-4-yl)methyl)piperazin-1-yl)-2-(2,6-dioxopiperidin-3-yl)isoindoline-1,3-dione] | B (“B” indicates maximum degradation ≥ 50%) | < 50%
Cc1nc2cccc(NCCOCCOCCNC(=O)C34CC(COc5cc(-c6ccccc6O)nnc5N)(C3)C4)c2c(=O)n1C1CCC(=O)NC1=O (centres unmarked) [Compound 61, 3-(((3-amino-6-(2-hydroxyphenyl)pyridazin-4-yl)oxy)methyl)-N-(2-(2-(2-((3-(2,6-dioxopiperidin-3-yl)-2-methyl-4-oxo-3,4-dihydroquinazolin-5-yl)amino)ethoxy)ethoxy)ethyl)bicyclo[1.1.1]pentane-1-carboxamide] | C (“C” indicates maximum degradation < 50%) | < 50%
Nc1nnc(-c2ccccc2O)cc1OCCC12CC(NC(=O)CCN3CC4(C3)CN(c3ccc5c(c3)C(=O)N(C3CCC(=O)NC3=O)C5=O)C4)(C1)C2 (centres unmarked) [Compound 34, N-(3-(2-((3-amino-6-(2-hydroxyphenyl)pyridazin-4-yl)oxy)ethyl)bicyclo[1.1.1]pentan-1-yl)-3-(6-(2-(2,6-dioxopiperidin-3-yl)-1,3-dioxoisoindolin-5-yl)-2,6-diazaspiro[3.3]heptan-2-yl)propanamide] | C (“C” indicates maximum degradation < 50%) | < 50%
Nc1nnc(-c2ccccc2O)cc1OCC12CC(CNC(=O)CCCCCCCOc3cccc4c3C(=O)N(C3CCC(=O)NC3=O)C4=O)(C1)C2 (centres unmarked) [Compound 5, N-[[3-([[3-amino-6-(2-hydroxyphenyl)pyridazin-4-yl]oxy]methyl)bicyclo[1.1.1]pentan-1-yl]methyl]-8-[[2-(2,6-dioxopiperidin-3-yl)-1,3-dioxoisoindol-4-yl]oxy]octanamide] | C (“C” indicates maximum degradation < 50%) | < 50%
Nc1nnc(-c2ccccc2O)cc1OCC12CC(C(=O)NCCCC#Cc3ccc4c(c3)C(=O)N(C3CCC(=O)NC3=O)C4=O)(C1)C2 (centres unmarked) [Compound 89, 3-(((3-amino-6-(2-hydroxyphenyl)pyridazin-4-yl)oxy)methyl)-N-(5-(2-(2,6-dioxopiperidin-3-yl)-1,3-dioxoisoindolin-5-yl)pent-4-yn-1-yl)bicyclo[1.1.1]pentane-1-carboxamide] | C (“C” indicates maximum degradation < 50%) | < 50%
Cc1ncsc1-c1ccc(CNC(=O)[C@@H]2C[C@@H](O)CN2C(=O)[C@@H](NC(=O)COCCOCCOCCOCC(=O)NC23CC(CCOc4cc(-c5ccccc5O)nnc4N)(C2)C3)C(C)(C)C)cc1 [Compound 45, N1-(3-(2-((3-amino-6-(2-hydroxyphenyl)pyridazin-4-yl)oxy)ethyl)bicyclo[1.1.1]pentan-1-yl)-N14-((S)-1-((2S,4R)-4-hydroxy-2-((4-(4-methylthiazol-5-yl)benzyl)carbamoyl)pyrrolidin-1-yl)-3,3-dimethyl-1-oxobutan-2-yl)-3,6,9,12-tetraoxatetradecanediamide] | B (“B” indicates maximum degradation ≥ 50%) | < 50%
